Reference: PMC7914648 (Pharmaceuticals, 2021)
“Also recorded” adds a separate entry of the source.

How the values were obtained:
[1] = spleen after tail vein injection; details: C57BL/6 mice, up to 60 min
[2] = liver extract after tail vein injection; details: C57BL/6 mice, up to 60 min
[3] = kidneys after tail vein injection; details: C57BL/6 mice, up to 60 min
[4] = fresh mouse blood, withdrawn from the jugular vein and heparinized; details: C57BL mice, 37 °C, up to 4 h
[5] = heart after tail vein injection; details: C57BL/6 mice, up to 60 min

## HN-ITFFYGGSRGKRNNFKTEEY-OH
[1]
  fragment found: PAPTPL-ITF, 15 min; also recorded: PAPTPL-I, 15 min; also recorded: PAPTPL-IT, 15 min
[2]
  fragment found: PAPTPL-I, 15 min; also recorded: PAPTPL-IT, 15 min; also recorded: PAPTPL-ITF, 15 min
[3]
  fragment found: PAPTPL-I, 15 min; also recorded: PAPTPL-IT, 15 min; also recorded: PAPTPL-ITF, 15 min
[4]
  cleaved bond: hydrolysis of the carbamate bond connecting the peptide and PAPTPL, 10 min
[5]
  fragment found: PAPTPL, 15 min; also recorded: PAPTPL-IT, 30 min; also recorded: PAPTPL-ITF, 30 min
